Drawing on patent US10618903B2, “Heteroaryl substituted aminopyridine compounds” (BRISTOL-MYERS SQUIBB COMPANY, priority 2015, dated 2020), this text covers IC50 and EC50 for 19 compounds.

One test deals with IRAK4 (Homo sapiens (Human), UniProt Q9NWZ3). In words: IRAK4 Inhibition Assay. To be noted: ATP 500 μM; IRAK4 0.6 nM. It is filed as biochemical. In short, it runs like this: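 Mobility-shift kinase assay: 0.6 nM IRAK4, 500 μM ATP, 1.5 μM fluorescent peptide, 60 min, room temperature. Percent inhibition was normalised between enzyme-free and DMSO-only wells.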
IRAK4, sequence (Q9NWZ3 whole entry): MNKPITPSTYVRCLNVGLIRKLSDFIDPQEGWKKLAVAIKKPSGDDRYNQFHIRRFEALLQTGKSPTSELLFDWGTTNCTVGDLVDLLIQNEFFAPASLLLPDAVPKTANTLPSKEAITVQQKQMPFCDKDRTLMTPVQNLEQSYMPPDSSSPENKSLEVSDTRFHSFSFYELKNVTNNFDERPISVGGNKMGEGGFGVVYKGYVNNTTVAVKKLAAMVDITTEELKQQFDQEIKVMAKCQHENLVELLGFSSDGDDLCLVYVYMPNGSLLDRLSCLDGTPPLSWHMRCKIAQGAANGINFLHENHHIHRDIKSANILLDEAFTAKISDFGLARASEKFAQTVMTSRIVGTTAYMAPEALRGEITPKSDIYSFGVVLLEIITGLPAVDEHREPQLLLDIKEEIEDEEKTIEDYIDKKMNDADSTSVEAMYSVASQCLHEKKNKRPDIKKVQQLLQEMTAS
Test [1] relates to IL-6 levels in human whole blood stimulated with a TLR2 agonist. The test is described as follows: IRAK4 Whole Blood Assay (lipoteichoic acid/TLR2-stimulated IL-6). The note with it: lipoteichoic acid 10 μg/mL, IL-6 readout. It is filed as cell-based. In short, it runs like this: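 IL-6 was quantified by cytometric bead assay in supernatants of human blood (ACD-A) stimulated for 5 h with lipoteichoic acid at 10 μg/mL final. Compound exposure preceded stimulation for 60 min at 37 °C, 5% CO2.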

Broadly, the IC50 is the concentration that gives 50% inhibition. Broadly, the EC50 is the concentration needed to bring the measured effect to its halfway point.

Turning to `CC(C)Nc1cc(-c2cnc3cc(C#N)cnn23)ncc1C(=O)NCCCn1ccnc1` [Example 214, N-(3-(1H-imidazol-1-yl)propyl)-6-(7-cyanoimidazo[1,2-b]pyridazin-3-yl)-4-(isopropylamino)nicotinamide], the 50% inhibitory concentration (IC50) at IRAK4 came to 11 nM. Moreover, in test [1] (Homo sapiens), the midpoint of the response, the EC50, lay at 480 nM.

As for `CC(C)Nc1cc(-c2cnc3cc(C#N)cnn23)ncc1C(=O)NC1CCC(N(C)C)CC1` (centres unmarked) [Example 215, 6-(7-cyanoimidazo[1,2-b]pyridazin-3-yl)-N-(4-(dimethylamino)cyclohexyl)-4-(isopropylamino)nicotinamide], the IC50 on IRAK4 turned out to be 4 nM. In test [1] (Homo sapiens), this compound showed a 50% effective concentration (EC50) of 600 nM.

With `CC(=O)N[C@H]1CC[C@H](NC(=O)c2cnc(-c3cnc4cc(Cl)cnn34)cc2NC(C)C)CC1` [Example 219, N-((1r,4r)-4-acetamidocyclohexyl)-6-(7-chloroimidazo[1,2-b]pyridazin-3-yl)-4-(isopropylamino)nicotinamide], the IC50 on IRAK4 worked out at 18 nM. The EC50 in test [1] (Homo sapiens) came out at 450 nM.

On to `CC(=O)N[C@H]1CC[C@H](NC(=O)c2cnc(-c3cnc4cc(C#N)cnn34)cc2NC(C)C)CC1` [Example 220, N-((1r,4r)-4-acetamidocyclohexyl)-6-(7-cyanoimidazo[1,2-b]pyridazin-3-yl)-4-(isopropylamino)nicotinamide], for which, on IRAK4, the IC50 was 16 nM. In test [1] (Homo sapiens), this compound yielded an EC50 of 340 nM.

For `C[C@@H](CF)Nc1cc(-c2cnc3cc(C#N)cnn23)ncc1C(=O)NCCC(C)(C)O` [Example 221, (S)-6-(7-cyanoimidazo[1,2-b]pyridazin-3-yl)-4-((1-fluoropropan-2-yl)amino)-N-(3-hydroxy-3-methylbutyl)nicotinamide], the IC50 at IRAK4 is 14 nM. For the same compound, in test [1] (Homo sapiens), the EC50 was 570 nM.

For `CC(C)(O)[C@H](F)CNC(=O)c1cnc(-c2cnc3cc(C(F)F)cnn23)cc1NC1COC1` [Example 222, (R)-6-(7-(difluoromethyl)imidazo[1,2-b]pyridazin-3-yl)-N-(2-fluoro-3-hydroxy-3-methylbutyl)-4-(oxetan-3-ylamino)nicotinamide], the half-maximal inhibitory concentration (IC50) at IRAK4 was determined as 7 nM. Also, a half-maximal response in test [1] (Homo sapiens) (EC50) required 630 nM.

Turning to `COC(=O)N[C@H]1CC[C@H](NC(=O)c2cnc(-c3cnc4cc(C#N)cnn34)cc2NC(C)C)CC1` [Example 223, methyl((1r,4r)-4-(6-(7-cyanoimidazo[1,2-b]pyridazin-3-yl)-4-(isopropylamino)nicotinamido)cyclohexyl)carbamate], the IC50 on IRAK4 is 13 nM. This compound registered an EC50 in test [1] (Homo sapiens) of 810 nM.

As for `COC(=O)N[C@H]1CC[C@H](NC(=O)c2cnc(-c3cnc4cc(C#N)cnn34)cc2NC2(C)CC2)CC1` [Example 224, methyl ((1r,4r)-4-(6-(7-cyanoimidazo[1,2-b]pyridazin-3-yl)-4-((1-methylcyclopropyl)amino)nicotinamido)cyclohexyl)carbamate], at IRAK4, the IC50 is 7 nM. For the same compound, the half-maximal effective concentration (EC50) in test [1] (Homo sapiens) was 570 nM.

Turning to `CC(C)n1cc(Nc2cc(-c3cnn4cc(Cl)cnc34)ncc2C(=O)NC[C@@H](F)C(C)(C)O)cn1` [Example 233, (R)-6-(6-chloropyrazolo[1,5-a]pyrimidin-3-yl)-N-(2-fluoro-3-hydroxy-3-methylbutyl)-4-((1-isopropyl-1H-pyrazol-4-yl)amino)nicotinamide], the IC50 on IRAK4 stood at 6 nM. In test [1] (Homo sapiens), the EC50 came to 570 nM.

Regarding `CC(C)(O)[C@H](F)CNC(=O)c1cnc(-c2cnn3cc(C#N)cnc23)cc1Nc1cnn(C(F)F)c1` [Example 234, (R)-6-(6-cyanopyrazolo[1,5-a]pyrimidin-3-yl)-4-((1-(difluoromethyl)-1H-pyrazol-4-yl)amino)-N-(2-fluoro-3-hydroxy-3-methylbutyl)nicotinamide], on IRAK4, the concentration for half-maximal inhibition (IC50) stood at 3 nM. Further, the EC50 in test [1] (Homo sapiens) came to 540 nM.

For `CC(C)(O)[C@H](F)CNC(=O)c1cnc(-c2cnn3cc(Cl)cnc23)cc1Nc1cnn(CC(F)(F)F)c1` [Example 237, (R)-6-(6-chloropyrazolo[1,5-a]pyrimidin-3-yl)-N-(2-fluoro-3-hydroxy-3-methylbutyl)-4-((1-(2,2,2-trifluoroethyl)-1H-pyrazol-4-yl)amino)nicotinamide], the IC50 on IRAK4 turned out to be 2 nM. Besides, a half-maximal effect in test [1] (EC50) was put at 690 nM.

For `O=C(N[C@H]1CC[C@H](O)CC1)c1cnc(-c2cnn3cc(Cl)cnc23)cc1Nc1cnn(CC(F)F)c1` [Example 252, 6-(6-chloropyrazolo[1,5-a]pyrimidin-3-yl)-4-((1-(2,2-difluoroethyl)-1H-pyrazol-4-yl)amino)-N-((1r,4r)-4-hydroxycyclohexyl) nicotinamide], on IRAK4, the half-maximal inhibitory concentration (IC50) is 3 nM. In test [1] (Homo sapiens), this compound returned an EC50 of 930 nM.

Regarding `CC(C)(O)[C@H]1CC[C@H](NC(=O)c2cnc(-c3cnn4cc(Cl)cnc34)cc2Nc2cnn(C3CC3)c2)CC1` [Example 254, 6-(6-chloropyrazolo[1,5-a]pyrimidin-3-yl)-4-((1-cyclopropyl-1H-pyrazol-4-yl)amino)-N-((1r,4r)-4-(2-hydroxypropan-2-yl)cyclohexyl)nicotinamide], the half-inhibitory concentration (IC50) at IRAK4 is 2 nM. The compound further showed an EC50 in test [1] (Homo sapiens) of 470 nM.

As to `Cn1cc(Nc2cc(-c3cnn4cc(Cl)cnc34)ncc2C(=O)NCCC(C)(C)O)cn1` [Example 255, 6-(6-chloropyrazolo[1,5-a]pyrimidin-3-yl)-N-(3-hydroxy-3-methylbutyl)-4-((1-methyl-1H-pyrazol-4-yl)amino)nicotinamide], on IRAK4, the IC50 came to 5 nM. In addition, in test [1] (Homo sapiens), the concentration giving a half-maximal response (EC50) came out at 720 nM.

Consider `Cn1cc(Nc2cc(-c3cnn4cc(Cl)cnc34)ncc2C(=O)N[C@H]2CC[C@H](C(C)(C)O)CC2)cn1` [Example 256, 6-(6-chloropyrazolo[1,5-a]pyrimidin-3-yl)-N-((1r,4r)-4-(2-hydroxypropan-2-yl)cyclohexyl)-4-((1-methyl-1H-pyrazol-4-yl)amino)nicotinamide], for which the IC50 at IRAK4 was determined as 3 nM. The compound further returned an EC50 in test [1] (Homo sapiens) of 790 nM.

As for `COC(=O)N[C@H]1CC[C@H](NC(=O)c2cnc(-c3cnn4cc(Cl)cnc34)cc2Nc2cnn(C)c2)CC1` [Example 257, methyl ((1r,4r)-4-(6-(6-chloropyrazolo[1,5-a]pyrimidin-3-yl)-4-((1-methyl-1H-pyrazol-4-yl)amino)nicotinamido)cyclohexyl)carbamate], the half-inhibitory concentration (IC50) at IRAK4 was 14 nM. The EC50 in test [1] (Homo sapiens) is 710 nM.

On to `CC(C)(O)[C@H]1CC[C@H](NC(=O)c2cnc(-c3cnc4cc(Cl)cnn34)cc2Nc2cnn(CC(F)F)c2)CC1` [Example 264, 6-(7-chloroimidazo[1,2-b]pyridazin-3-yl)-4-((1-(2,2-difluoroethyl)-1H-pyrazol-4-yl)amino)-N-((1r,4r)-4-(2-hydroxypropan-2-yl)cyclohexyl)nicotinamide], for which, on IRAK4, the half-maximal inhibitory concentration (IC50) stood at 2 nM. The same compound gave a 50% effective concentration (EC50) in test [1] (Homo sapiens) of 910 nM.

As for `CC(F)(F)Cn1ccc(Nc2cc(-c3cnc4cc(C#N)cnn34)ncc2C(=O)NC[C@@H](F)C(C)(C)O)n1` [Example 268, (R)-6-(7-cyanoimidazo[1,2-b]pyridazin-3-yl)-4-((1-(2,2-difluoropropyl)-1H-pyrazol-3-yl)amino)-N-(2-fluoro-3-hydroxy-3-methylbutyl)nicotinamide], the IC50 at IRAK4 came to 3 nM. Further, the response in test [1] (Homo sapiens) was half-maximal at 960 nM (EC50).

Consider `CC(F)(F)Cn1cc(Nc2cc(-c3cnc4cc(C#N)cnn34)ncc2C(=O)NC[C@@H](F)C(C)(C)F)cn1` [Example 269, (R)-6-(7-cyanoimidazo[1,2-b]pyridazin-3-yl)-N-(2,3-difluoro-3-methylbutyl)-4-((1-(2,2-difluoropropyl)-1H-pyrazol-4-yl)amino)nicotinamide], for which the IC50 on IRAK4 amounted to 2 nM. This compound displayed an EC50 in test [1] (Homo sapiens) of 560 nM.
